From paper PMC8820799, “Angiogenesis and anti-leukaemia activity of novel indole derivatives as potent colchicine binding site inhibitors” (Journal of Enzyme Inhibition and Medicinal Chemistry, 2022)

How the values were obtained:
[1] = target: T1, Tubulin isolated from porcine brain tissue (Sus scrofa, UniProt P02550+P02554); assay: Tubulin polymerisation assay; format: biochemical; details: triplicate, mean ± SD; read-out: Tubulin (tubulin inhibitory polymerisation IC50)
T1 construct: purchased Cytoskeleton (Denver, CO), via Beyotime, China; host or cells: porcine brain tissue
T1 sequence (P02554 whole entry): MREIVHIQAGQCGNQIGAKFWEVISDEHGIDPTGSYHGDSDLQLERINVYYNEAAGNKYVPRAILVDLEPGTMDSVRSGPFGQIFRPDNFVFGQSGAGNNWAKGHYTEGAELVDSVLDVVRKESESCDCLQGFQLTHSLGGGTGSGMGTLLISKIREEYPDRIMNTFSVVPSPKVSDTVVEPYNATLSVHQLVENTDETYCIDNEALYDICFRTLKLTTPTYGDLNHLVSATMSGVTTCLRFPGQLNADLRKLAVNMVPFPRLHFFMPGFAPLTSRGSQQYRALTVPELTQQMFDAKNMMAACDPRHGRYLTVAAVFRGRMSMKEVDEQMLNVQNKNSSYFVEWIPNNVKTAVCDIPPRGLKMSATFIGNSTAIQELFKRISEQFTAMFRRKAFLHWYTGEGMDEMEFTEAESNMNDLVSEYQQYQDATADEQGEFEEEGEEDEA
T1 sequence (P02550 whole entry): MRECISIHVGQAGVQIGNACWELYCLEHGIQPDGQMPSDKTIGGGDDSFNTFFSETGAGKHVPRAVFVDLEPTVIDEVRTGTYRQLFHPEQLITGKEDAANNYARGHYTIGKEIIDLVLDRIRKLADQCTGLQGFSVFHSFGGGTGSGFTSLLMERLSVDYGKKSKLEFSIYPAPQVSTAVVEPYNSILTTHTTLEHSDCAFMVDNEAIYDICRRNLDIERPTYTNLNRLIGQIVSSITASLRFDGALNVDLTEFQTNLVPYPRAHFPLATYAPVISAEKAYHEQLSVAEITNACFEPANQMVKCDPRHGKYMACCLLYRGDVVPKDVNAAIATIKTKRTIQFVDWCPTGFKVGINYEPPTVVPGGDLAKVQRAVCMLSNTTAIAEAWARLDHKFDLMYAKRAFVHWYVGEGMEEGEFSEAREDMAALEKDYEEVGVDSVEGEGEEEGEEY
Experimental: Tubulin polymerisation was determined with the tubulin polymerisation assay kit (Cytoskeleton, Denver, CO which was purchased from Cytoskeleton, Beyotime, China. Tubulin isolated from porcine brain tissue was used in this commercial kit.) It is based on the principal that light is scattered by microtubules to an extent that is proportional to the concentration of the microtubule polymer. Compounds that interact with tubulin will alter the polymerisation of tubulin, and this can be detected using a spectrophotometer. Tubulin polymerisation dynamics was monitored through measuring the change of absorbance at 340 nm every 2 min for 30 min at 37 °C on a spectrophotometer.

[2] = test system: transgenic zebrafish (FLK-1:EGFP); assay: Zebrafish angiogenesis assay (ISVs); format: in vivo; details: Danio rerio, transgenic zebrafish; triplicate, mean ± SD; read-out: Zebrafish (antiangiogenic activity IC50)
Experimental: The transgenic flk: enhanced GFP zebrafish embryos were generated by pair-wise mating, collected and sorted into the 6-well plate (n = 30 per well) with 1 ml of aquaculture water (0.2 g/L of Instant Ocean Salt in distilled water) and raised at 28 °C. Then the embryos staged at 12 h post fertilisation (hpf) were treated with the indicated concentrations of compounds which were added into embryo water. About 30 embryos were screened for each concentration gradient. At 30hpf, the treated embryos were anaesthetised with 0.02% tricaine in embryo water and photographed. The numbers of ISVs were recorded under confocal microscopy. Results were obtained from three independent determinations and presented as mean ± SD.[38]

IC50 [1] [µM]	melting point [°C]	SMILES	IC50 [2] [µM]
8.5 ± 1.2	–	COc1cc(C(=O)C=Cc2c[nH]c3ccccc23)cc(OC)c1OC [Compound 6]	27.8 ± 0.9
18.6 ± 0.5	–	COc1cc(C(=O)C=Cc2cc3ccccc3o2)cc(OC)c1OC [Compound 7]	29.5 ± 1.5
45.7 ± 2.3	–	COc1cc(C(=O)C=Cc2ccc3sc4ccccc4c3c2)cc(OC)c1OC [Compound 8]	68.6 ± 2.1
20.8 ± 1.4	–	COc1cc(C(=O)C=Cc2nc3ccccc3[nH]2)cc(OC)c1OC [Compound 9]	> 100
> 100	–	Cn1cc(/C=C/C(=O)c2ccccc2)c2ccccc21 [Compound 23a, (E)-3–(1-Methyl-1H-indol-3-yl)-1-phenylprop-2-en-1-one]	–
> 100	165 to 168	CCn1cc(/C=C/C(=O)c2ccccc2)c2ccccc21 [Compound 23b, (E)-3–(1-Ethyl-1H-indol-3-yl)-1-phenylprop-2-en-1-one]	–
> 100	161 to 162	CCCn1cc(/C=C/C(=O)c2ccccc2)c2ccccc21 [Compound 23c, (E)-1-Phenyl-3–(1-propyl-1H-indol-3-yl)prop-2-en-1-one]	–
68.6 ± 3.2	161 to 163	O=C(/C=C/c1cn(Cc2ccccc2)c2ccccc12)c1ccccc1 [Compound 23d, (E)-3–(1-Benzyl-1H-indol-3-yl)-1-phenylprop-2-en-1-one]	–
> 100	165 to 168	O=C(/C=C/c1cn(S(=O)(=O)c2ccccc2)c2ccccc12)c1ccccc1 [Compound 23e, (E)-1-Phenyl-3–(1-(phenylsulfonyl)-1H-indol-3-yl)prop-2-en-1-one]	–
> 100	173 to 175	Cn1cc(/C=C/C(=O)c2cccc(Cl)c2)c2ccccc21 [Compound 24a, (E)-1–(3-Chlorophenyl)-3–(1-methyl-1H-indol-3-yl)prop-2-en-1-one]	–
> 100	165 to 168	CCn1cc(/C=C/C(=O)c2cccc(Cl)c2)c2ccccc21 [Compound 24b, (E)-1–(3-Chlorophenyl)-3–(1-ethyl-1H-indol-3-yl)prop-2-en-1-one]	–
> 100	161 to 162	CCCn1cc(/C=C/C(=O)c2cccc(Cl)c2)c2ccccc21 [Compound 24c, (E)-1–(3-Chlorophenyl)-3–(1-propyl-1H-indol-3-yl)prop-2-en-1-one]	–
> 100	161 to 163	O=C(/C=C/c1cn(Cc2ccccc2)c2ccccc12)c1cccc(Cl)c1 [Compound 24d, (E)-3–(1-Benzyl-1H-indol-3-yl)-1–(3-chlorophenyl)prop-2-en-1-one]	–
92.3 ± 2.4	165 to 168	O=C(/C=C/c1cn(S(=O)(=O)c2ccccc2)c2ccccc12)c1cccc(Cl)c1 [Compound 24e, (E)-1–(3-Chlorophenyl)-3–(1-(phenylsulfonyl)-1H-indol-3-yl)prop-2-en-1-one]	–
> 100	171 to 173	Cn1cc(/C=C/C(=O)c2ccc(Cl)cc2)c2ccccc21 [Compound 25a, (E)-1–(4-chlorophenyl)-3–(1-methyl-1H-indol-3-yl)prop-2-en-1-one]	–
> 100	165 to 168	CCn1cc(/C=C/C(=O)c2ccc(Cl)cc2)c2ccccc21 [Compound 25b, (E)-1–(4-chlorophenyl)-3–(1-ethyl-1H-indol-3-yl)prop-2-en-1-one]	–
> 100	160 to 162	CCCn1cc(/C=C/C(=O)c2ccc(Cl)cc2)c2ccccc21 [Compound 25c, (E)-1–(4-chlorophenyl)-3–(1-propyl-1H-indol-3-yl)prop-2-en-1-one]	–
> 100	163 to 165	O=C(/C=C/c1cn(Cc2ccccc2)c2ccccc12)c1ccc(Cl)cc1 [Compound 25d, (E)-3–(1-benzyl-1H-indol-3-yl)-1–(4-chlorophenyl)prop-2-en-1-one]	–
> 100	162 to 165	O=C(/C=C/c1cn(S(=O)(=O)c2ccccc2)c2ccccc12)c1ccc(Cl)cc1 [Compound 25e, (E)-1–(4-chlorophenyl)-3–(1-(phenylsulfonyl)-1H-indol-3-yl)prop-2-en-1-one]	–

IC50 [1] [µM]	melting point [°C]	SMILES	IC50 [2] [µM]
85.7 ± 2.5	160 to 162	COc1ccc(C(=O)/C=C/c2cn(C)c3ccccc23)cc1 [Compound 26a, (E)-1–(4-Methoxyphenyl)-3–(1-methyl-1H-indol-3-yl)prop-2-en-1-one]	–
78.8 ± 1.3	165 to 168	CCn1cc(/C=C/C(=O)c2ccc(OC)cc2)c2ccccc21 [Compound 26b, (E)-3–(1-Ethyl-1H-indol-3-yl)-1–(4-methoxyphenyl)prop-2-en-1-one]	–
72.5 ± 1.7	161 to 162	CCCn1cc(/C=C/C(=O)c2ccc(OC)cc2)c2ccccc21 [Compound 26c, (E)-1–(4-Methoxyphenyl)-3–(1-propyl-1H-indol-3-yl)prop-2-en-1-one]	–
75.8 ± 2.6	161 to 163	COc1ccc(C(=O)/C=C/c2cn(Cc3ccccc3)c3ccccc23)cc1 [Compound 26d, (E)-3–(1-Benzyl-1H-indol-3-yl)-1–(4-methoxyphenyl)prop-2-en-1-one]	–
58.4 ± 1.7	165 to 168	COc1ccc(C(=O)/C=C/c2cn(S(=O)(=O)c3ccccc3)c3ccccc23)cc1 [Compound 26e, (E)-1–(4-Methoxyphenyl)-3–(1-(phenylsulfonyl)-1H-indol-3-yl)prop-2-en-1-one]	35.6 ± 3.2
> 100	161 to 162	COc1cccc(C(=O)/C=C/c2cn(C)c3ccccc23)c1 [Compound 27a, (E)-1–(3-Methoxyphenyl)-3–(1-methyl-1H-indol-3-yl)prop-2-en-1-one]	–
> 100	165 to 166	CCn1cc(/C=C/C(=O)c2cccc(OC)c2)c2ccccc21 [Compound 27b, (E)-3–(1-Ethyl-1H-indol-3-yl)-1–(3-methoxyphenyl)prop-2-en-1-one]	–
52.1 ± 2.9	161 to 162	CCCn1cc(/C=C/C(=O)c2cccc(OC)c2)c2ccccc21 [Compound 27c, (E)-1–(3-Methoxyphenyl)-3–(1-propyl-1H-indol-3-yl)prop-2-en-1-one]	18.6 ± 3.2
> 100	161 to 163	COc1cccc(C(=O)/C=C/c2cn(Cc3ccccc3)c3ccccc23)c1 [Compound 27d, (E)-3–(1-Benzyl-1H-indol-3-yl)-1–(3-methoxyphenyl)prop-2-en-1-one]	–
87.2 ± 1.4	167 to 168	COc1cccc(C(=O)/C=C/c2cn(S(=O)(=O)c3ccccc3)c3ccccc23)c1 [Compound 27e, (E)-1–(3-Methoxyphenyl)-3–(1-(phenylsulfonyl)-1H-indol-3-yl)prop-2-en-1-one]	–
> 100	160 to 162	Cn1cc(/C=C/C(=O)c2ccc(C(F)(F)F)cc2)c2ccccc21 [Compound 28a, (E)-3–(1-Methyl-1H-indol-3-yl)-1–(4-(trifluoromethyl)phenyl)prop-2-en-1-one]	–
> 100	165 to 168	CCn1cc(/C=C/C(=O)c2ccc(C(F)(F)F)cc2)c2ccccc21 [Compound 28b, (E)-3–(1-ethyl-1H-indol-3-yl)-1–(4-(trifluoromethyl)phenyl)prop-2-en-1-one]	–
26.8 ± 4.6	161 to 162	CCCn1cc(/C=C/C(=O)c2ccc(C(F)(F)F)cc2)c2ccccc21 [Compound 28c, (E)-3–(1-Propyl-1H-indol-3-yl)-1–(4-(trifluoromethyl)phenyl)prop-2-en-1-one]	–
> 100	160 to 163	O=C(/C=C/c1cn(Cc2ccccc2)c2ccccc12)c1ccc(C(F)(F)F)cc1 [Compound 28d, (E)-3–(1-Benzyl-1H-indol-3-yl)-1–(4-(trifluoromethyl)phenyl)prop-2-en-1-one]	–
10.4 ± 0.7	167 to 170	O=C(/C=C/c1cn(S(=O)(=O)c2ccccc2)c2ccccc12)c1ccc(C(F)(F)F)cc1 [Compound 28e, (E)-3–(1-(phenylsulfonyl)-1H-indol-3-yl)-1–(4-(trifluoromethyl)phenyl)prop-2-en-1-one]	5.8 ± 2.1
49.9 ± 8.5	160 to 162	COc1cc(C(=O)/C=C/c2cn(C)c3ccccc23)cc(OC)c1OC [Compound 29a, (E)-3–(1-Methyl-1H-indol-3-yl)-1–(3,4,5-trimethoxyphenyl)prop-2-en-1-one]	15.7 ± 3.2
> 100	155 to 158	CCn1cc(/C=C/C(=O)c2cc(OC)c(OC)c(OC)c2)c2ccccc21 [Compound 29b, (E)-3–(1-Ethyl-1H-indol-3-yl)-1–(3,4,5-trimethoxyphenyl)prop-2-en-1-one]	–
> 100	162 to 164	CCCn1cc(/C=C/C(=O)c2cc(OC)c(OC)c(OC)c2)c2ccccc21 [Compound 29c, (E)-3–(1-Propyl-1H-indol-3-yl)-1–(3,4,5-trimethoxyphenyl)prop-2-en-1-one]	–
